Laboratory results: patent publication US9346753B2, “Dithiol mucolytic agents” (PARION SCIENCES, INC., priority 2013, dated 2016)
Counter-ions that a name gives are not always drawn.

Experiment: DTNB assay: rate of disulfide bond reduction
Type: biochemical
Parameters: unit not given here
Settings: 2nd order kinetic
Description: DTNB ASSAY: This assay determines the rate which a mucolytic agent can reduce a disulfide bond using 5,5-Dithiobis(2-nitrobenzoic acid). DTNB in various pH buffers and allows comparison of the kinetic rates of reducing agents. First, reducing agent stock solutions (30 mM) were made up in DMSO. Each compound stock solution was diluted, […] in 1 ml 50 mM Tris-HCl buffer, pH 7.5, and then added in a 1:1 volumetric ratio to a solution of 100 mM DTNB in 50 mM Tris-HCl buffer, pH 7.5. Max Abs412 was measured and then utilized to calculate the activity concentration. If the observed activity concentrations differed from expected activity concentrations by more than 5%, the volume was accordingly adjusted to kinetically test the rate in the next step. After having added the reducing agents, diluted in a range of pH buffer solutions (pH 6.0-7.5), to 45 mM DTNB in 50 mM Tris-HCl and measured the Abs412 for 5 min rates were calculated as a 2nd order kinetic.

Row | Structure (SMILES) | Kinetic Reaction Rates of Reduction of DTNB (pH 6) | Kinetic Reaction Rates of Reduction of DTNB (pH 6.5) | Kinetic Reaction Rates of Reduction of DTNB (pH 7) | Kinetic Reaction Rates of Reduction of DTNB (pH 7.5)
1 | O[C@H](CS)[C@H](O)CS (racemic) [DTT, dithiothreitol, reference compound] | 69 | 176 | 382 | 2088
2 | N=C(N)NCCCC[C@H](N)C(=O)NCCOc1ccc(CS)c(CS)c1 [C, (S)-2-amino-N-(2-(3,4-bis(mercaptomethyl)phenoxy)ethyl)-6-guanidinohexanamide] | 2460 | 7122 | 12313 | 17317
3 | N=C(N)NCCCC[C@@H](N)C(=O)NCCOc1ccc(CS)c(CS)c1 [Compound B, (R)-2-amino-N-(2-(3,4-bis(mercaptomethyl)phenoxy)ethyl)-6-guanidinohexanamide Hydrochloride] | 1491 | – | – | –
4 | CC(=O)NCCCC[C@H](N)C(=O)NCCOc1ccc(CS)c(CS)c1 [Compound K, (S)-6-acetamido-2-amino-N-(2-(3,4-bis(mercaptomethyl)phenoxy)ethyl)hexanamide] | 678 | 1820 | 3775 | 9143
5 | OC[C@@H](O)[C@@H](O)[C@H](O)[C@@H](O)CNCCOc1ccc(CS)c(CS)c1 [Compound O, (2R,3R,4R,5S)-6-(2-(3,4-bis(mercaptomethyl)phenoxy)ethylamino)hexane-1,2,3,4,5-pentaol hydrochloride] | 921 | 2500 | 5412 | 13547
6 | NCCCC[C@@H](N)C(=O)NCCOc1ccc(CS)c(CS)c1 [Compound V, (R)-2,6-diamino-N-(2-(3,4-bis(mercaptomethyl)phenoxy)ethyl)hexanamide Hydrochloride] | 1419 | 4568 | 6192 | 10043
7 | NCCCC[C@H](N)C(=O)NCCOc1cc(CS)c(CS)cc1OCCNC(=O)[C@@H](N)CCCCN [Compound W, (2S,2′S)-N,N′-(2,2′-(4,5-bis(mercaptomethyl)-1,2-phenylene)bis(oxy)bis(ethane-2,1-diyl))bis(2,6-diaminohexanamide) Hydrochloride] | 4850 | – | – | –
8 | N=C(N)NCCCC[C@H](N)C(=O)NCCCC[C@H](N)C(=O)NCCOc1ccc(CS)c(CS)c1 [E, (S)-2-amino-N-((S)-5-amino-6-(2-(3,4-bis(mercaptomethyl)phenoxy)ethylamino)-6-oxohexyl)-6-guanidinohexanamide Hydrochloride] | 5933 | 13718 | 16393 | 17109
9 | N=C(N)NCCCC[C@H](N)C(=O)NCCOc1cc(CS)c(CS)cc1OCCNC(=O)[C@@H](N)CCCCNC(=N)N [H, (2S,2′S)-N,N′-(2,2′-(4,5-bis(mercaptomethyl)-1,2-phenylene)bis(oxy)bis(ethane-2,1-diyl))bis(2-amino-6-guanidinohexanamide) Hydrochloride] | 6835 | – | – | –
10 | CC(C)(C)OC(=O)NCCOc1ccc(CS)c(CS)c1 [I, tert-butyl 2-(3,4-bis(mercaptomethyl)phenoxy)ethylcarbamate] | 285 | 745 | 1916 | 7265
11 | NCCOc1ccc(CS)c(CS)c1 [KK, (4-(2-aminoethoxy)-1,2-phenylene)dimethanethiol] | 873 | 2411 | 5163 | 13896
12 | NCCCC[C@H](N)C(=O)NCCOc1ccc(CS)c(CS)c1 [L, (S)-2,6-diamino-N-(2-(3,4-bis(mercaptomethyl)phenoxy)ethyl)hexanamide] | 1911 | 5565 | 8847 | 14566
13 | N=C(N)NCCOc1ccc(CS)c(CS)c1 [LL, 1-(2-(3,4-bis(mercaptomethyl)phenoxy)ethyl)guanidine] | 743 | 2352 | 4661 | 8241
14 | OC[C@@H](O)[C@@H](O)[C@H](O)[C@@H](O)CN(CCOc1ccc(CS)c(CS)c1)C[C@H](O)[C@@H](O)[C@H](O)[C@H](O)CO [N, (2R,2′R,3R,3′R,4R,4′R,5S,5'S)-6,6′-(2-(3,4-bis(mercaptomethyl)phenoxy)ethylazanediyl)dihexane-1,2,3,4,5-pentaol hydrochloride] | 952 | 2366 | 4382 | 9532
15 | CCCCCCN(CCOc1ccc(CS)c(CS)c1)C[C@H](O)[C@@H](O)[C@H](O)[C@H](O)CO [P, (2R,3R,4R,5S)-6-((2-(3,4-bis(mercaptomethyl)phenoxy)ethyl)(hexyl)amino)hexane-1,2,3,4,5-pentaol hydrochloride] | 1018 | 2701 | 6180 | 13243
16 | CN(C)CCOc1ccc(CS)c(CS)c1 [Q, (4-(2-(dimethylamino)ethoxy)-1,2-phenylene)dimethanethiol hydrochloride] | 954 | 2984 | 6077 | 15927
17 | N=C(NCCOc1ccc(CS)c(CS)c1)NC(=O)c1nc(Cl)c(N)nc1N [R, 3,5-diamino-N-(N-(2-(3,4-bis(mercaptomethyl)phenoxy)ethyl)carbamimidoyl)-6-chloropyrazine-2-carboxamide hydrochloride] | 2901 | 7382 | 13522 | 16870
18 | NCCCC[C@H](N)C(=O)NCCCC[C@H](N)C(=O)NCCOc1ccc(CS)c(CS)c1 [S, (S)-2,6-diamino-N-((S)-5-amino-6-(2-(3,4-bis(mercaptomethyl)phenoxy)ethylamino)-6-oxohexyl)hexanamide] | 4483 | 10715 | 13732 | 15469
19 | NCCCC[C@H](N)C(=O)NCCCC[C@H](N)C(=O)NCCCC[C@H](N)C(=O)NCCOc1ccc(CS)c(CS)c1 [T, (S)-2,6-diamino-N-((S)-5-amino-6-((S)-5-amino-6-(2-(3,4-bis(mercaptomethyl)phenoxy)ethylamino)-6-oxohexylamino)-6-oxohexyl)hexanamide] | 5144 | – | – | –
20 | N=C(N)NCCCC[C@H](N)C(=O)NCCCC[C@H](N)C(=O)NCCCC[C@H](N)C(=O)NCCOc1ccc(CS)c(CS)c1 [U, (S)-2-amino-6-((S)-2-amino-6-((S)-2-amino-6-guanidinohexanamido)hexanamido)-N-(2-(3,4-bis(mercaptomethyl)phenoxy)ethyl)hexanamide Hydrochloride] | 5761 | – | – | –
21 | NCCCC[C@H](N)C(=O)NCCCC[C@H](N)C(=O)NCCOc1cc(CS)c(CS)cc1OCCNC(=O)[C@@H](N)CCCCNC(=O)[C@@H](N)CCCCN [X, (S,2S,2′S)-N,N′-(2,2′-(4,5-bis(mercaptomethyl)-1,2-phenylene)bis(oxy)bis(ethane-2,1-diyl))bis(2-amino-6-((S)-2,6-diaminohexanamido)hexanamide)] | 8029 | – | – | –
22 | N=C(N)NCCCC[C@H](N)C(=O)NCCCC[C@H](N)C(=O)NCCOc1cc(CS)c(CS)cc1OCCNC(=O)[C@@H](N)CCCCNC(=O)[C@@H](N)CCCCNC(=N)N [Y, (S,2S,2′S)-N,N′-(2,2′-(4,5-bis(mercaptomethyl)-1,2-phenylene)bis(oxy)bis(ethane-2,1-diyl))bis(2-amino-6-((S)-2-amino-6-guanidinohexanamido)hexanamide)] | 8718 | – | – | –
23 | N=C(N)NCCCC[C@@H](N)C(=O)NCCCN(CCCNC(=O)[C@H](N)CCCCNC(=N)N)CCOc1ccc(CS)c(CS)c1 [Z, (2R,2′R)-N,N′-(3,3′-(2-(3,4-bis(mercaptomethyl)phenoxy)ethylazanediyl)bis(propane-3,1-diyl))bis(2-amino-6-guanidinohexanamide)] | 7200 | 10420 | 10631 | 18513
